Assays:
[1] = target: BMP-2-inducible protein kinase (Homo sapiens) (UniProt Q9NSY1); assay: Selectivity interaction (KinomeScan (DiscoverX)) EUB0000595a BMP2K; conditions: at 10 µM
[2] = target: T1, Serine/threonine-protein kinase Nek5 (Homo sapiens) (UniProt Q6P3R8); assay: Selectivity interaction (KinomeScan (DiscoverX)) EUB0000595a NEK5; conditions: at 10 µM
T1 sequence (whole entry): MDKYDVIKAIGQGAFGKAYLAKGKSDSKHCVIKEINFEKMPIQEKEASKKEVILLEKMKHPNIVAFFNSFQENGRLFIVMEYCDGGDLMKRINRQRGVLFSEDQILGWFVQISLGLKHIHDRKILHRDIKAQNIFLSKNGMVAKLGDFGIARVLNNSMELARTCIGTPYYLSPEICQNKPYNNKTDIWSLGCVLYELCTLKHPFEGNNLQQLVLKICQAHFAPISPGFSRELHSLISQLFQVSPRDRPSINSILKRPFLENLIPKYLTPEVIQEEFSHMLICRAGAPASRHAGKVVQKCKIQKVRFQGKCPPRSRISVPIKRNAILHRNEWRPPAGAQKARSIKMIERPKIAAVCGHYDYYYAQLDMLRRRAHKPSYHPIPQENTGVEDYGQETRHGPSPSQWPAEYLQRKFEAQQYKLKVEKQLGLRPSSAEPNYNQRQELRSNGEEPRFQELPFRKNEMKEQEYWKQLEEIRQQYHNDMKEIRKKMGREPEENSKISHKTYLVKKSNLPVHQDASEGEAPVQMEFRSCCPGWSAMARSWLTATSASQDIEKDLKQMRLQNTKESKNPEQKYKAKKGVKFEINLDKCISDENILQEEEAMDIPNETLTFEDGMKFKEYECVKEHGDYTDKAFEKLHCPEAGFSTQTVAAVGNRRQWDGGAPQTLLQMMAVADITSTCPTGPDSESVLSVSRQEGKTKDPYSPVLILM

[3] = test system: Tyrosine-protein kinase ABL1 (Homo sapiens), P00519 [H396P]; assay: Selectivity interaction (KinomeScan (DiscoverX)) EUB0000045b ABL1; conditions: at 10 µM
[4] = target: Serine/threonine-protein kinase PAK 6 (Homo sapiens) (UniProt Q9NQU5); assay: Selectivity interaction (KinomeScan (DiscoverX)) EUB0001049a PAK6; conditions: at 1 µM
[5] = target: RAC-gamma serine/threonine-protein kinase (Homo sapiens, UniProt Q9Y243); assay: Selectivity interaction (ProQinase) EUB0000171b AKT3
[6] = test system: Tyrosine-protein kinase ABL1 (Homo sapiens), P00519 [F317I]; assay: Selectivity interaction (KinomeScan (DiscoverX)) EUB0000607a ABL1; conditions: at 10 µM
[7] = test system: RAF proto-oncogene serine/threonine-protein kinase (Homo sapiens), P04049 [Y340D,Y341D]; assay: Selectivity interaction (SelectScreen profiling (Invitrogen)) EUB0000607a RAF1; conditions: at 2 µM
[8] = target: Calcium/calmodulin-dependent protein kinase type 1 (Homo sapiens) (UniProt Q14012); assay: Selectivity interaction (KinomeScan (DiscoverX)) EUB0000618a CAMK1; conditions: at 10 µM
[9] = target: T2, cGMP-dependent protein kinase 1 (Homo sapiens) (UniProt Q13976); conditions: at 10 µM
T2 sequence (whole entry): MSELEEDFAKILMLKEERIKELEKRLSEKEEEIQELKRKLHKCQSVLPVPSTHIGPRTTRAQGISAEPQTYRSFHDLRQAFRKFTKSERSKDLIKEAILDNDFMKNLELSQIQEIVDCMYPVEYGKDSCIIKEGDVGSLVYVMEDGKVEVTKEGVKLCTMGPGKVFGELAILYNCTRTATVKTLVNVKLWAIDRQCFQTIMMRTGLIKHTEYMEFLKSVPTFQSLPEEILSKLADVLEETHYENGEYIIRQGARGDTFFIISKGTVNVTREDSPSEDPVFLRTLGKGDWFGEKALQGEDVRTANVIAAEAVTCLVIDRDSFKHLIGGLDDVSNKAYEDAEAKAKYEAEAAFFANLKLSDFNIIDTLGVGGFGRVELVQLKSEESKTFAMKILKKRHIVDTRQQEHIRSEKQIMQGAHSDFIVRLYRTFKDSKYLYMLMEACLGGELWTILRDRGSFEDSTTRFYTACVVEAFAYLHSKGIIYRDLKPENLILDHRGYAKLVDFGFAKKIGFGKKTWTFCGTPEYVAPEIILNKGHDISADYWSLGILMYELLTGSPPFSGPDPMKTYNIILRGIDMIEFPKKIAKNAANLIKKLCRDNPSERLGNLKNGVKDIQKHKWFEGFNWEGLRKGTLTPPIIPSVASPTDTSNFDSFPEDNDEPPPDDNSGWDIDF

Chain of RAC-gamma serine/threonine-protein kinase (Q9Y243 whole entry): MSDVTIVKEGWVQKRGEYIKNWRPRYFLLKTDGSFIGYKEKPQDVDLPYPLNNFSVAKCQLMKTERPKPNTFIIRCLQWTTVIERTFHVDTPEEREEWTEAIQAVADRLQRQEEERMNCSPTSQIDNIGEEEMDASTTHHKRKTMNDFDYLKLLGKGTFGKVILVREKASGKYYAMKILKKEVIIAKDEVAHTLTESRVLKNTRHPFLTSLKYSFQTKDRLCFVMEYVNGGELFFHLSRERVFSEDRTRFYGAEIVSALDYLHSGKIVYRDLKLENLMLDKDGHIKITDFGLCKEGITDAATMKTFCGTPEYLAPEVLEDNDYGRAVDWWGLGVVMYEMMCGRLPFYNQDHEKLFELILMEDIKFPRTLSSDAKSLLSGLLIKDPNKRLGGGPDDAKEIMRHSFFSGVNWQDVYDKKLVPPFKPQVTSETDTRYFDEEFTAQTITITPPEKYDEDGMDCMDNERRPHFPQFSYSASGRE
Chain of BMP-2-inducible protein kinase (Homo sapiens) (Q9NSY1 whole entry, looked up): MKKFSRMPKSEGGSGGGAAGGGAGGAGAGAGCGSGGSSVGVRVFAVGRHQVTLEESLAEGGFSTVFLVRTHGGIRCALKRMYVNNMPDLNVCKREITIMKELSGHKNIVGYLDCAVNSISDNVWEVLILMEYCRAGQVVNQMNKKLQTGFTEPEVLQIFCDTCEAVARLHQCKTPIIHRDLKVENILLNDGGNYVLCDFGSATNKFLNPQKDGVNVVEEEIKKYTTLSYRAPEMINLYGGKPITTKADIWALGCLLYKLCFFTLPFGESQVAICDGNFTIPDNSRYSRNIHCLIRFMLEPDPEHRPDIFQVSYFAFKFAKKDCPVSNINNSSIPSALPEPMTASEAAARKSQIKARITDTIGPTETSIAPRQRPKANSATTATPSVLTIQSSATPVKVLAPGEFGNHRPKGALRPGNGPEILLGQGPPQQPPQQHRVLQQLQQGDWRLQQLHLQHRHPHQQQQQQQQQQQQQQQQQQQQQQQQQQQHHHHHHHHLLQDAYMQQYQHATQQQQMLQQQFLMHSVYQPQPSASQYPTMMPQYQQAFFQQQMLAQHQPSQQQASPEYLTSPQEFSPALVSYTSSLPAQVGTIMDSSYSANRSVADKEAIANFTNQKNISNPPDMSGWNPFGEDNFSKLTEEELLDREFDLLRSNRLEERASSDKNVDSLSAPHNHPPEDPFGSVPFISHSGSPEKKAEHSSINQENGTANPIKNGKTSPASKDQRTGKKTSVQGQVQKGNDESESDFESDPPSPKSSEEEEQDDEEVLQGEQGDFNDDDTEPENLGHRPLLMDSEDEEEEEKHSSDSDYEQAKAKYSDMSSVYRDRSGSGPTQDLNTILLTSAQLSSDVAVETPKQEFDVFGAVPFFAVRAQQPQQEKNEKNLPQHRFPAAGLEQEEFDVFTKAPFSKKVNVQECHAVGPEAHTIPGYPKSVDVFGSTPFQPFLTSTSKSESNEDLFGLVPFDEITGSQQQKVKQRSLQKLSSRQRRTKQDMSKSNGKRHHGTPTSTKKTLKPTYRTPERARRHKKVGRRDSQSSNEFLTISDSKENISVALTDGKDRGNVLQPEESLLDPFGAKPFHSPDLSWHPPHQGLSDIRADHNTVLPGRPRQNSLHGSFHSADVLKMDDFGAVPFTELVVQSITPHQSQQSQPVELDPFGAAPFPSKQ
Chain of Calcium/calmodulin-dependent protein kinase type 1 (Homo sapiens) (Q14012 whole entry, looked up): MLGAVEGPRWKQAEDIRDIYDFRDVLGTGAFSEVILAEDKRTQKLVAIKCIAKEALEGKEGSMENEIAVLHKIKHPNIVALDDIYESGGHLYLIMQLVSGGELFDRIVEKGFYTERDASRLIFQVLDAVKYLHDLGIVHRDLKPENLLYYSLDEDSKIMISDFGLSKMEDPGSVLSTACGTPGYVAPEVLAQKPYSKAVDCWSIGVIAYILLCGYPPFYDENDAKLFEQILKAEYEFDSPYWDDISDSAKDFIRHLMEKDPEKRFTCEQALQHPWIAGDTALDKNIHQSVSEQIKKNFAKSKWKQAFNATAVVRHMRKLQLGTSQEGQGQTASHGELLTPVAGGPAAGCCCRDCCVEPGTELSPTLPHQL
Chain of Serine/threonine-protein kinase PAK 6 (Homo sapiens) (Q9NQU5 whole entry, looked up): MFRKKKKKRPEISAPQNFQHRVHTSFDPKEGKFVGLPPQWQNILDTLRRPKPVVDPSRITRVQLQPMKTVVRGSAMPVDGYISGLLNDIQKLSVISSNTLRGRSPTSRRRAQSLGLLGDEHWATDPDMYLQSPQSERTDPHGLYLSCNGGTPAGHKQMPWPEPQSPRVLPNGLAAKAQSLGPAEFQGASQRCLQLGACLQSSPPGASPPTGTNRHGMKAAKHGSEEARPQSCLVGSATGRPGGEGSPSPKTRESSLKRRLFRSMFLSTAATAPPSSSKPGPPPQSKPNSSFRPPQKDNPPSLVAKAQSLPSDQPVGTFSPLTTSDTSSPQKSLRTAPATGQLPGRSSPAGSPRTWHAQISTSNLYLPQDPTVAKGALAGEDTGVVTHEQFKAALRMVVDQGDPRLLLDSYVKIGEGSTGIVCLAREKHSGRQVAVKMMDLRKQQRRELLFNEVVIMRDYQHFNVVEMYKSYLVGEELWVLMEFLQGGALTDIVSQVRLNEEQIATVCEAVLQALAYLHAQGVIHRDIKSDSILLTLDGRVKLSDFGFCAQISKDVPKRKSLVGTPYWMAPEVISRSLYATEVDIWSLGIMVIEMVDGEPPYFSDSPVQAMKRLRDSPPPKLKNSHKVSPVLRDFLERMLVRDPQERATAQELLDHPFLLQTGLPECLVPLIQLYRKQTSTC
Chain of RAF proto-oncogene serine/threonine-protein kinase (Homo sapiens), P04049 [Y340D,Y341D] (P04049 whole entry Y340D/Y341D): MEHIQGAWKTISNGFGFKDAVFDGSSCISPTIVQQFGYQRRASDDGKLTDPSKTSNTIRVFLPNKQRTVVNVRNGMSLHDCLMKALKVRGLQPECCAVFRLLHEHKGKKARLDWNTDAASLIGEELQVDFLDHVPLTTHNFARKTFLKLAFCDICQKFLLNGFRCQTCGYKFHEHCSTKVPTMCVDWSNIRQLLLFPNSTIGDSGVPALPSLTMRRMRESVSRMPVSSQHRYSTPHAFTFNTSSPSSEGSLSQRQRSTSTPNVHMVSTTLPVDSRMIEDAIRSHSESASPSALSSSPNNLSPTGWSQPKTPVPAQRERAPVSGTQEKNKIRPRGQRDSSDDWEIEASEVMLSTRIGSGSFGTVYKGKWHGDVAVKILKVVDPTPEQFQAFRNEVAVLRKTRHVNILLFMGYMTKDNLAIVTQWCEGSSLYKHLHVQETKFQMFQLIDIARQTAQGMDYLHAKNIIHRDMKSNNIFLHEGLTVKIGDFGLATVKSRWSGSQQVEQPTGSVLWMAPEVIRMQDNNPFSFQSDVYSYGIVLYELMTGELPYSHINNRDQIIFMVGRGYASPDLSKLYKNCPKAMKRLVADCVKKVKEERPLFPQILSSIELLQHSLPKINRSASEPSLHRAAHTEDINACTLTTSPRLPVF

COCC(=O)NC/C=C/c1ccc2ncnc(Nc3ccc(Oc4ccc(C)nc4)c(C)c3)c2c1 [CP-724714]
% of control [1]: 73% | % of control [2]: 100%

C=CC(=O)Nc1cc(-n2c(=O)ccc3cnc4ccc(-c5ccc(NS(C)(=O)=O)cc5)cc4c32)ccc1C
% of control [3]: 44%

COc1cc(Nc2nc(C)cc(-c3cnn4nc(OC)ccc34)n2)cc(C(F)(F)F)c1
% of control [4]: 75%

C=CC(=O)Nc1cccc(C(=O)Nc2ccc(Nc3cc(-c4[nH]c(SC)nc4C)ccn3)cc2)c1
% of control ([5]; at 1 µM): 95% | % of control ([5]; at 5 µM): 90%

CNC(=O)Nc1ccc(-c2nc(N3CC4CCC(C3)O4)c3cnn(C4CCC5(CC4)OCCO5)c3n2)cc1
% of control [6]: 100% | % of inhibition [7]: 12%

O[C@H]1CC[C@H](Nc2ncc3nc(Nc4c(F)cc(F)cc4F)n([C@H]4CCOC4)c3n2)CC1
% of control [8]: 100%

CCN(CC)CCCCNc1ncc2cc(-c3cc(OC)cc(OC)c3)c(NC(=O)NC(C)(C)C)nc2n1
% of control [9]: 100%
